This is an account of results in PMC10149936, “Cofilin activation in pancreatic acinar cells plays a pivotal convergent role for mediating CCK-stimulated enzyme secretion and growth” (Frontiers in Physiology, 2023).

The test system of this test is cofilin (pS3) in CCK1-R/Panc-1 cells. Description: cofilin activation (pS3 cofilin Western blot) in CCK1-R/Panc-1 cells. In kind it is cell-based, human. Particulars: CCK-8 0.3 and 100 nM, 5 min. On the procedure: CCK1 receptor transfected Panc-1 (CCK1-R/Panc-1) cells ([Berna et al., 2009]) and AR42J cells, were cultured in DMEM supplemented with 10% FBS and 1% penicillin/streptomycin and in RPMI supplemented with 10% FBS and 1% penicillin/streptomycin, respectively; and split 1:10 weekly with trypsin/EDTA, after washing in PBS. Finally, cells were seeded in 6-well plate and serum starved overnight, until they were 80% confluent. Cells were incubated at 37°C in 5% CO2/95% air. AR42J cells were treated with 100 nM dexamethasone for 72°h, which stimulates their differentiation into exocrine cells ([Logsdon, 1986]).
Pancreatic acini preparations were obtained by collagenase digestion as previously described ([Bissonnette et al., 1984]; [Sato et al., 1989]; [Ramos-Alvarez and Jensen, 2018]). […] Isolated acini and CCK1-R/Panc-1 cells (M&M 2.2.1) were also preincubated with two SSH1 inhibitors, D3 (25 μM, 1 h) ([Li et al., 2015]) or SE (50 μM, 3 h for acini; 24 h for CCK1-R/Panc-1 cells) ([Lee et al., 2017]). […] After sonication, lysates were centrifuged at 10,000×g for 15 min at 4°C and protein concentration was measured using the Bio-Rad protein assay reagent. […]
Western blotting and immunoprecipitation were performed as described previously ([Ramos-Alvarez and Jensen, 2018]). […] The intensity of the protein bands was measured using GeneTools software from Syngene, which were assessed in the linear detection range. […]
FIGURE 3 Effect of two SSH1 inhibitors, D3 and SE (A–C), or SSH1 siRNA (D), on the ability of CCK-8 (0.3 and 100 nM) to activate LIMK and cofilin in pancreatic acini (A/B) and activate cofilin in CCK1-R/Panc-1 cells (C/D). […] Western blots were analyzed using anti-pS3 cofilin and anti-pT508 […], and the knockdown effect of SSH1 was confirmed by Western blots using SSH1 (C-term) antibody. Bands were visualized using chemiluminescence and quantified by densitometry. […] Results are expressed as % of basal stimulation of the control group. *, p < 0.05 compared to the control group; ∞, p < 0.05 compared to stimulants without inhibitors. […]

With “COOH-terminal octapeptide of cholecystokinin [CCK-8]”, the “effect on cofilin phosphorylation in CCK1-R/Panc-1 cells” value was “caused rapidly dephosphorylation of cofilin”.
